Reference: patent publication US6509003B2, “Reagents for the determination of cerebral regional acetylcholinesterase activity” (Daiichi Pure Chemicals Co., Ltd., priority 1997, dated 2003)
Read-outs that look alike come from different tables or passages of the source.

Tests used:
[1] = molecular target: T1, central AchE (Rattus norvegicus, UniProt P37136); assay: radioactivity distribution in the rat brain by dissection method after intravenous administration; type: in vivo; parameters: from tissue; host or cells: brain of living male rats (in vivo); conditions: male wistar rats, i.v.
T1 sequence (P37136 32-614): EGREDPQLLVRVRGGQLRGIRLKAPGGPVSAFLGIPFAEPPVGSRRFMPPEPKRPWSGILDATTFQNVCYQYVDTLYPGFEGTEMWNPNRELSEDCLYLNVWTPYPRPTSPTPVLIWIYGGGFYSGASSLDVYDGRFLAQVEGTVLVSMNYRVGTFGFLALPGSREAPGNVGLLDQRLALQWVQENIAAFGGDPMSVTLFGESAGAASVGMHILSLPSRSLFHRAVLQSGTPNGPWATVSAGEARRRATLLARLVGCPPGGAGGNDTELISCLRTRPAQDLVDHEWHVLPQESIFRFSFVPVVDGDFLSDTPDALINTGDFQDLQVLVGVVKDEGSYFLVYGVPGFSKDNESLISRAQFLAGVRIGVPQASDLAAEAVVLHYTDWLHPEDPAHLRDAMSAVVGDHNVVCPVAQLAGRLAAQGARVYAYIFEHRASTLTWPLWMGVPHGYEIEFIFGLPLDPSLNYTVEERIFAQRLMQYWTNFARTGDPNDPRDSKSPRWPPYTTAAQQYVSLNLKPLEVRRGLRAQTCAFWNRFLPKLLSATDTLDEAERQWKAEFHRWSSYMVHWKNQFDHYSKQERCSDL
Procedure: After a geometrical isomer (50b) of compound No. 50 obtained in Example 8 (1) had been intravenously administered to groups of male wistar rats, radioactivity distribution in the rat brain was assayed by dissection method.

[2] = molecular target: T2, AchE (Rattus norvegicus, UniProt P37136); type: biochemical; parameters: Cerebral cortical tissues were obtained from rats, weighed and homogenized; from tissue; host or cells: rat cerebral cortex homogenate
Procedure: Cerebral cortical tissues were obtained from rats, weighed and homogenized (90 mg tissue/ml) in 0.1 M phosphate buffer, pH7.4. […]

[3] = molecular target: T1, central AchE; assay: radioactivity distribution in the rat brain by autoradiography after intravenous administration; type: in vivo; parameters: from tissue; host or cells: brain of living male rats (in vivo); conditions: male white rat, i.v.; for migration to the brain: 14C-labeled, autoradiography
[4] = molecular target: T2, AchE; assay: hydrolysis of 14C-labeled compound in 20% rat brain cortex homogenate, radio TLC, with/without BW284c51; conditions: for specificity for AchE in hydrolysis reaction: 14C-labeled compound, from inhibition test with BW284c51
Procedure: Rat brain cortex was processed into a 20% (w/v) homogenate by use of 0.9% NaCl-10 mM phosphate buffer (pH 7.4).

[5] = molecular target: T1, central AchE; assay: radioactivity distribution in the rat brain by quantitative autoradiography after intravenous administration; conditions: 14C-labeled 13b, male white rat, i.v.
[6] = fifteen minutes or more after administration
[7] = immediately after administration
[8] = thirty minutes after administration
[9] = thirty minutes or more after administration

Structure (SMILES): COCOC(CC/C=C/[123I])C1CN(C)CCC1OC(C)=O (single isomer, unassigned) [50b]
- accumulation of radioactivity, cerebellum [1, 6]: accumulation of radioactivity was low
- accumulation of radioactivity, striatum [1, 6]: high accumulation of radioactivity
- radioactivity distribution, brain cortex [1, 7]: high
- radioactivity distribution, striatum [1, 7]: low
- specificity for AchE ([2]; 123I-labeled compound, rat cerebral cortical homogenate, 37°C, from inhibition by BW284c51): 88.6%

Structure (SMILES): CC(=O)OC1CN([14CH3])CCC1C(O)/C=C/I (stereo not shown) [compound No. 47, N-^14C-methyl-3-acetoxy-4-(1-hydroxy-3-iodo-2-propenyl)piperidine]
- migration to the brain [3]: commonly migrated to the brain
- radioactivity distribution, brain cortex ([3]; 5 minutes after administration): high
- radioactivity distribution, cerebellum ([3]; 5 minutes after administration): low
- radioactivity distribution, corpus striatum ([3]; 5 minutes after administration): somewhat high
- accumulation of radioactivity, cerebellum [3, 8]: low accumulation of radioactivity
- accumulation of radioactivity, corpus striatum [3, 8]: high accumulation of radioactivity

Structure (SMILES): C=CC[N+](C)(C)c1ccc(CCC(=O)CCc2ccc([N+](C)(C)CC=C)cc2)cc1.[Br-].[Br-] [BW284c51, reference compound]
- hydrolysis on addition of BW284c51 ([4]; hydrolysis of 14C-labeled compound No. 13 in rat brain cortex homogenate): considerably inhibited
- hydrolysis on addition of BW284c51 ([2]; hydrolysis of 123I-labeled 50b in rat cerebral cortical homogenate): considerably inhibited

Structure (SMILES): O.[14CH3]N1CCC(C(O)/C=C/I)C(O)C1 (stereo not drawn) [compound No. 46, N-^14C-methyl-3-hydroxy-4-(l-hydroxy-3-iodo-2-propenyl)piperidine]
- migration to the brain [3]: hardly migrated to the brain

Structure (SMILES): CC(=O)OC1CCN(C)CC1C(O)CC/C=C/I (single isomer, unassigned) [13b]
- specificity for AchE in hydrolysis reaction ([4]; rat brain cortex homogenate): 91.8%
- reactivity and specificity for AchE (in words) ([4]; rat brain cortex homogenate): excellent reactivity and specificity for AchE
- half-life ([4]; rat, 20% (w/v) brain cortex homogenate, pH 7.4, half-life of hydrolysis, 14C-labeled (N-methyl) compound, rat brain cortex homogenate, 37°C): ~5 min
- radioactivity distribution, brain cortex [5, 7]: high
- radioactivity distribution, corpus striatum [5, 7]: low
- accumulation of radioactivity, cerebellum [5, 9]: low accumulation of radioactivity
- accumulation of radioactivity, striatum [5, 9]: high accumulation of radioactivity

Structure (SMILES): CC(=O)OC1CCN(C)CC1C(O)CC/C=C/I (single isomer, unassigned) [13a]
- specificity for AchE in hydrolysis reaction ([4]; rat brain cortex homogenate): 80.4%
